Biological target: T1, squalene synthetase (human HepG2 cell enzyme) (Homo sapiens, UniProt P37268)
T1 construct: SOURCE: HEPG2 CELL LINE (Liver, hepatoblastoma, Human) ATCC No. HB 8065; endogenous in cells; host or cells: HepG2 (ATCC HB 8065), sonicated cell extract
T1 sequence (P37268 1-417): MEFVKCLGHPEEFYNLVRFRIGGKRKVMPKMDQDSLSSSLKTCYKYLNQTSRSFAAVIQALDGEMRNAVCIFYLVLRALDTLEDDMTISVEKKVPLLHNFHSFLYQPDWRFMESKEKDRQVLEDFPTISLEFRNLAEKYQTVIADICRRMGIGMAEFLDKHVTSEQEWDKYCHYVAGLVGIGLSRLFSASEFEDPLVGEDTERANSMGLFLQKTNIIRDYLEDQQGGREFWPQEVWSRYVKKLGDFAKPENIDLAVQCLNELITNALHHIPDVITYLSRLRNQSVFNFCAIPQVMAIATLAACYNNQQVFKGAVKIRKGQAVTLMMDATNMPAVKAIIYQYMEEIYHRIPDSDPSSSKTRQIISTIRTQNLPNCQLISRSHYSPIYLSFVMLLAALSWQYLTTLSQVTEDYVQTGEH
Assay: Squalene Synthase Assay (human HepG2 cell enzyme, 3H-farnesyl pyrophosphate substrate)
Assay type: biochemical
Conditions: 3 μM 3H-farnesyl pyrophosphate, pH 7.5, 30° C., 20 minutes
Description: The intrinsic squalene synthetase inhibitory activity of the compounds of this invention was measured by the standard in vitro protocol described below:
PREPARATION OF HUMAN HepG2 cell ENZYME
1. SOURCE: HEPG2 CELL LINE (Liver, hepatoblastoma, Human) ATCC No. HB 8065
2. CELL GROWTH AND MAINTENANCE
Culture Medium: Minimum essential medium (MEM) with non-essential amino acids, sodium pyruvate, and 10% fetal bovine serum. The medium was changed twice weekly. […] The growth medium is prepared as listed below.
Subculture Procedure: Remove medium, wash with PBS, add fresh trypsin (0.25%)-EDTA (0.02%) with Hank's Balanced Salt solution and let flask stand for a minute and remove the trypsin solution. Incubate flask at 37° C. until cells detached. Add fresh medium, disperse and dispense cells into new flasks. Subcultivation ratio: 1:6.
PREPARATION of Delipidated Serum: Fetal calf serum (100 ml) and CAB-O-Sil (2 grams) stir overnight at 4° C. and centrifuge at 16,000 rpm for 5 hrs. […]
For each reaction, 55 μl of buffer mixture was taken with 5 μl of an inhibitor solution in DMSO and 10 μl of diluted enzyme (1 to 250 as described in the enzyme preparation, the final protein concentration of enzyme in the assay is 2 μg per ml.). […] 150 μl of heptane layer was then removed into a 96 deep well plate and mixed with 150 μl of scintillation fluid and the radioactivity was determined by liquid scintillation counting. […]

## C=C(CCC12OCC(OC(C)=O)C(C(=O)O)(O1)C(OC(=O)/C=C/C(C)CC(C)CC)C2O)C(OC(C)=O)C(C)Cc1ccccc1 (stereo not drawn) [Example 1, 4-Acetate of 3,4-decarboxy-4-epi-Zaragozic Acid A]
  IC50: 0.00295 µM

## C=C(CCC12OCC(OC(=O)C(C)(C)C)C(C(=O)O)(O1)C(OC(=O)/C=C/C(C)CC(C)CC)C2O)C(OC(C)=O)C(C)Cc1ccccc1 (stereo not drawn) [Example 2, 4-Trimethylacetate of 3,4-decarboxy-4-epi-Zaragozic Acid A]
  IC50: 0.0582 µM

Source: US5264593A, “Cholesterol lowering compounds” (Merck & Co., Inc., priority 1993, dated 1993)
